The record followed here is PMC10246002 (bioRxiv, 2023).

The structures appear in SMILES notation.

The subject of this data set is human tracheobronchial epithelial cells (hTECs). It is filed as cell-based. The conditions noted are these: hTEC ALI culture with IL-13, resazurin assay.

Turning to `Cc1ccc(-n2nc(C(C)(C)C)cc2NC(=O)Nc2ccc(OCCN3CCOCC3)c3ccccc23)cc1` [NuP-43, BIRB-796], the “number of viable cells” value was “no significant effects”.
